Legend:
[1] = system: lower epidermis of Commelina benghalensis L.; experiment: Stomatal opening promoting activity in a dark place (stomatal aperture of peeled lower epidermis); format: cell-based; details: for Stomatal Aperture: dark place 3 hours
Experimental: (§1) The lower epidermis of Commelina benghalensis L. was peeled off, immersed in the stomatal aperture measurement solution, and allowed to stand still in a dark place for 2 hours. Then, the lower epidermis of Commelina benghalensis L. was immersed in test solutions prepared by adding steviol to the stomatal aperture measurement solution to give 100 or 300 μM (final concentration) or in the stomatal aperture measurement solution without the addition of steviol (Comparative Example 1), and allowed to stand still in a bright place for 3 hours. The lower epidermis of Commelina benghalensis L. after immersion in the test solutions was photographed with a digital camera (LCD (Liquid Crystal Display), manufactured by KENIS LIMITED) attached to a microscope (Olympus BH2; objective lens SPlan 10 [manufactured by Olympus Corporation] magnification 200×). The stomatal aperture was measured with measurement software (digital microanalyzer, manufactured by Nippon Polaroid Corporation; Polaroid is the registered trademark). The stomatal aperture was measured for 80 or more stomata, for each addition concentration. The stomatal aperture obtained at each addition concentration was compared with the stomatal aperture obtained without the addition of steviol (0 μM, Comparative Example 1), and statistical analysis was performed by student's t-test.
(§2) The lower epidermis of Commelina benghalensis L. that had been peeled off was immersed in the stomatal aperture measurement solution, and allowed to stand still in a dark place for 2 hours. Then, the lower epidermis of Commelina benghalensis L. was immersed in test solutions prepared by adding steviol to the stomatal aperture measurement solution to give 200 or 300 μM (final concentration) or in the stomatal aperture measurement solution without the addition of steviol (Comparative Example 4), and allowed to stand still in a dark place for 3 hours. Then, the stomatal aperture was measured as in Example 1.
as §2, with “stevioside” for “steviol”, “give 100,” for “give”, “5),” for “4),”
as §2, with “rebaudioside A” for “steviol”, “10, 100, 300,” for “200”, “500” for “300”, “6),” for “4),”
as §2, with “FARM A” for “steviol”, “a 2,000-, 1,000-,” for “200”, “500-fold dilution” for “300 μM”, “7),” for “4),”

[2] = system: lower epidermis of Commelina benghalensis L.; experiment: Stomatal opening promoting activity in a bright place (stomatal aperture of peeled lower epidermis); format: cell-based; details: for Stomatal Aperture: bright place 3 hours, mean±standard deviation
Experimental: as §1
The lower epidermis of Commelina benghalensis L. that had been peeled off was immersed in the stomatal aperture measurement solution, and allowed to stand still in a dark place for 2 hours. Then, the lower epidermis of Commelina benghalensis L. was immersed in test solutions prepared by adding FARM A to the stomatal aperture measurement solution to give a 500- or 250-fold dilution (final concentration) or in the stomatal aperture measurement solution without the addition of FARM A (Comparative Example 2), and allowed to stand still in a bright place for 3 hours. Then, the stomatal aperture was measured as in Example 1.

Structure (SMILES) | Stomatal Aperture ([1]; addition concentration 10 μM) | Stomatal Aperture ([1]; addition concentration 100 μM) | Stomatal Aperture ([1]; addition concentration 300 μM) | Stomatal Aperture ([1]; addition concentration 500 μM) | stomatal aperture as compared to without the addition (student's t-test) ([1]; every concentration (10, 100, 300, 500 μM), dark place) | stomatal aperture as compared to without the addition (student's t-test) ([1]; 200 or 300 μM, dark place) | Stomatal Aperture ([1]; addition concentration 200 μM) | stomatal aperture as compared to without the addition (student's t-test) ([2]; 300 μM, bright place) | stomatal aperture as compared to without the addition ([2]; 100 or 300 μM, bright place) | Stomatal Aperture ([2]; addition concentration 100 μM) | Stomatal Aperture ([2]; addition concentration 300 μM) | stomatal aperture as compared to without the addition ([1]; 100, 200 or 300 μM, dark place) | stomatal aperture as compared to without the addition (student's t-test) ([1]; 100 or 200 μM, dark place)
C=C1C[C@@]23CC[C@H]4[C@@](C)(CCC[C@@]4(C)C(=O)O[C@@H]4O[C@H](CO)[C@@H](O)[C@H](O)[C@H]4O)[C@@H]2CC[C@]1(O[C@@H]1O[C@H](CO)[C@@H](O)[C@H](O[C@@H]2O[C@H](CO)[C@@H](O)[C@H](O)[C@H]2O)[C@H]1O[C@@H]1O[C@H](CO)[C@@H](O)[C@H](O)[C@H]1O)C3 [rebaudioside A] | 8.70 ± 0.39 μm | 9.53 ± 0.45 μm | 11.46 ± 0.55 μm | 9.05 ± 0.40 μm | statistically significant increase in the stomatal aperture | – | – | – | – | – | – | – | –
C=C1C[C@@]23CC[C@H]4[C@@](C)(CCC[C@@]4(C)C(=O)O)[C@@H]2CC[C@]1(O)C3 [steviol] | – | – | 11.94 ± 0.42 μm | – | – | statistically significant increase in the stomatal aperture | 15.00 ± 0.32 μm | statistically significant increase in the stomatal aperture | an increase in the stomatal aperture | 15.16 ± 0.33 μm | 16.95 ± 0.37 μm | – | –
C=C1C[C@@]23CC[C@H]4[C@@](C)(CCC[C@@]4(C)C(=O)O[C@@H]4O[C@H](CO)[C@@H](O)[C@H](O)[C@H]4O)[C@@H]2CC[C@]1(O[C@@H]1O[C@H](CO)[C@@H](O)[C@H](O)[C@H]1O[C@@H]1O[C@H](CO)[C@@H](O)[C@H](O)[C@H]1O)C3 [stevioside] | – | 6.83 ± 0.23 μm | 5.81 ± 0.20 μm | – | – | – | 7.33 ± 0.31 μm | – | – | – | – | an increase in the stomatal aperture | statistically significant increase in the stomatal aperture

From patent US20230034248A1, “PLANT STOMATA OPENING PROMOTING AGENT” (OAT Agrio Co., Ltd., priority 2019, published 2023)
